Measurements reported in US11008323B2, “Substituted tricyclic 1,4-benzodiazepinone derivatives as allosteric modulators of group II metabotropic glutamate receptors” (Domain Therapeutics, priority 2015, dated 2021).

Each compound was assayed against T1, human mGluR3 (hmGluR3) (Homo sapiens, UniProt Q14832) (assay: Human mGluR3 positive allosteric modulator evaluation using Ca++ functional assay). Conditions: hmGluR3 transiently over-expressed in HEK-293 cells; stimulated by EC50 glutamate concentration; intracellular Ca2+ (Fluo4AM, FLIPR Tetra).
T1 construct: expressed in transfected cells; host or cells: HEK-293 cells, transient co-transfection by electroporation
T1 sequence (Q14832 23-879): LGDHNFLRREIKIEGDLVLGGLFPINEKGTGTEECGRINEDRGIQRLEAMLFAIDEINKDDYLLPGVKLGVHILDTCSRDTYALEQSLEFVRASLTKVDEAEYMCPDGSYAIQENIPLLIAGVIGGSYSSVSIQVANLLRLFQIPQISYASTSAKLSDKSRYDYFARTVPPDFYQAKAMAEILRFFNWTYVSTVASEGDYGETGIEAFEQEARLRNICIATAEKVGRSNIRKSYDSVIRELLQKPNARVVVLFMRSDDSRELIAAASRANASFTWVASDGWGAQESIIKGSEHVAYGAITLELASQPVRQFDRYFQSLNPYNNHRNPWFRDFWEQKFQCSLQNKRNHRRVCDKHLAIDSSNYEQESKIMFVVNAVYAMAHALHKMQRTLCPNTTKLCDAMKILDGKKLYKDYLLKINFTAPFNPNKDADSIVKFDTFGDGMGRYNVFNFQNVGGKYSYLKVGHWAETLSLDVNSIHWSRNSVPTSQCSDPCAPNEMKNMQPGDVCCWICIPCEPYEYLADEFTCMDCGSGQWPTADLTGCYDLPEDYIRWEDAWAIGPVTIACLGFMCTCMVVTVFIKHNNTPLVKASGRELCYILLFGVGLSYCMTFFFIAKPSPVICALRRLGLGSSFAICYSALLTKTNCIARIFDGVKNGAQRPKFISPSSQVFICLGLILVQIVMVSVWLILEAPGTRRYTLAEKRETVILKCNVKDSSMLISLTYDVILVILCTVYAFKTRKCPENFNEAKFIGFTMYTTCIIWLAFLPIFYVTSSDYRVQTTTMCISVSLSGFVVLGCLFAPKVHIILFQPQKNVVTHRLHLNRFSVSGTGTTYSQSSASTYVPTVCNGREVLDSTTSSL
Format: cell-based
Experimental: Compounds of the present invention were tested successively for their agonist and positive allosteric modulator activities on human mGluR3 (hmGluR3) transiently over-expressed in HEK-293 cells. Compounds exert agonist activity if they are able to activate hmGluR3 by themselves, i.e., in absence of the endogenous agonist glutamate; and they exert positive allosteric modulator activity if they increase the action of the endogenous agonist glutamate.
HEK-293 cells were maintained in Modified Eagle's Medium supplemented with 10% Foetal Calf Serum, 1% Penicillin/Streptomycin and 1% non-essential amino acids at 37° C./5% CO2.
Cells were co-transfected by electroporation with four DNA plasmids encoding hmGluR3, a chimeric G protein allowing redirection of the activation signal toward intracellular calcium pathway, and two glutamate transporters so as to decrease extracellular glutamate levels and avoid receptor desensitization (Brabet I et al., Neuropharmacology 37(8), 1043-51, 1998). After transfection, cells were seeded in 75 cm^2 culture flasks, and cultured for 24 h.
Receptor activity was detected by changes in intracellular calcium measured using the fluorescent Ca^2+ sensitive dye, Fluo4AM (Molecular Probes).
The day of the assay, medium was aspirated and replaced during 3 hrs by freshly prepared buffer B (HBSS 1×, Hepes 20 mM, MgSO4-7H2O 1 mM, Na2CO3 3.3 mM, CaCl2-2H2O 1.3 mM, 0.5% BSA, Probenecid 2.5 mM). Then, cells were loaded at 37° C./5% CO2 for 1.5 hrs with buffer B containing 1 μM Fluo4AM, 0.1 mg/mL Pluronic Acid, 7 μg/mL Glutamate Pyruvate Transaminase and 2 mM sodium pyruvate. Afterwards cells were washed with buffer B. Cells were then detached from the 75 cm^2 culture flasks with Accutase® (5 min incubation at 37° C.), centrifuged (5 min at 840 rpm), resuspended in buffer B and finally seeded at a density of 30,000 cells/well in black-walled clear-bottom 384-well plates. Addition of compounds on cells and intracellular Ca^2+ measurements (excitation 485 nm, emission 525 nm) were performed by the fluorescence microplate reader FLIPR Tetra (Molecular Devices).
Agonist and positive allosteric modulator activities of compounds were consecutively evaluated on the same cells plate. Agonist activity was first tested during 10 min with the addition of compound alone on the cells. Then, the cells were stimulated by an EC50 glutamate concentration and fluorescence was recorded for additional 3 min. EC50 glutamate concentration is the concentration giving 50% of the maximal glutamate response. Agonist and/or positive allosteric modulator activity(ies) were evaluated in comparison to basal signal or signal evoked by EC50 glutamate concentration alone, respectively.
For potency determination, a dose-response test was performed using 20 concentrations of each compound of the invention. Dose-response curves were fitted using the sigmoïdal dose-response (variable slope) analysis in XLfit Scientific Curve Fitting for Excel (IDBS). EC50 of agonist/EC50 of positive allosteric modulator activity(ies) were calculated. Dose-response experiments were all performed in duplicate, two times independently.
Cc1ccnc(C)c1-c1ccc2c(c1)-n1cccc1C(=O)N(C)C21CC1 [Example 65, 5-Methyl-9-(2,4-dimethylpyridin-3-yl)-spiro[benzo[f]pyrrolo[1,2-a][1,4]diazepine-6,1′-cyclopropan]-4(5H)-one] was tested, and the EC50 was greater than 1000 nM. Compound Cc1ncccc1-c1cc(F)c2c(c1)-n1cccc1C(=O)N(C)C21CC1 [Example 73, 7-Fluoro-5-methyl-9-(2-methyl-pyridin-3-yl)-spiro[benzo[f]pyrrolo[1,2-a][1,4]diazepine-6,1′-cyclopropan]-4(5H)-one] has an EC50 of less than 100 nM. With Cc1ncccc1-c1ccc2c(c1F)-n1cccc1C(=O)N(C)C21CC1 [Example 75, 10-Fluoro-5-methyl-9-(2-methyl-pyridin-3-yl)-spiro[benzo[f]pyrrolo[1,2-a][1,4]diazepine-6,1′-cyclopropan]-4(5H)-one] the EC50 was 100 to 1000 nM. For Cc1ncccc1-c1cc2c(cc1F)C1(CC1)N(C)C(=O)c1cccn1-2 [Example 77, 8-Fluoro-5-methyl-9-(2-methyl-pyridin-3-yl)-spiro[benzo[f]pyrrolo[1,2-a][1,4]diazepine-6,1′-cyclopropan]-4(5H)-one], the EC50 was 100 to 1000 nM. Work on Cc1ncccc1-c1ccc2c(c1)-n1c(F)ccc1C(=O)N(C)C21CC1 [Example 81, 9-(2-Methyl-pyridin-3-yl)-1-fluoro-5-methyl-spiro[benzo[f]pyrrolo[1,2-a][1,4]diazepine-6,1′-cyclopropan]-4(5H)-one] yielded an EC50 of less than 100 nM. For Cc1ncccc1-c1ccc2c(c1)-n1cc(Cl)cc1C(=O)N(C)C21CC1 [Example 82, 9-(2-Methyl-pyridin-3-yl)-2-chloro-5-methyl-spiro[benzo[f]pyrrolo[1,2-a][1,4]diazepine-6,1′-cyclopropan]-4(5H)-one], the EC50 was less than 100 nM. In the case of Cc1ncccc1-c1ccc2c(c1)-n1c(cc(Cl)c1F)C(=O)N(C)C21CC1 [Example 83, 9-(2-Methyl-pyridin-3-yl)-2-chloro-1-fluoro-5-methyl-spiro[benzo[f]pyrrolo[1,2-a][1,4]diazepine-6,1′-cyclopropan]-4(5H)-one], the EC50 is reported as less than 100 nM. For Cc1ncccc1-c1ccc2c(c1)-n1ccc(Cl)c1C(=O)N(C)C21CC1 [Example 84, 9-(2-Methyl-pyridin-3-yl)-3-chloro-5-methyl-spiro[benzo[f]pyrrolo[1,2-a][1,4]diazepine-6,1′-cyclopropan]-4(5H)-one], the EC50 was 100 to 1000 nM. Cc1ncccc1-c1cccc2c1-n1cccc1C(=O)N(C)C21CC1 [Example 92, 10-(2-Methyl-pyridin-3-yl)-5-methyl-spiro[benzo[f]pyrrolo[1,2-a][1,4]diazepine-6,1′-cyclopropan]-4(5H)-one] showed an EC50 greater than 1000 nM. For CN1C(=O)c2cc(-c3ccccc3)cn2-c2cc(-c3cccnc3)ccc2C12CC2 [Example 93, 5-Methyl-2-phenyl-9-pyridin-3-yl-spiro[benzo[f]pyrrolo[1,2-a][1,4]diazepine-6,1′-cyclopropan]-4(5H)-one], the EC50 was less than 100 nM. Cc1ncccc1-c1ccc2c(c1)-n1cc(-c3ccccc3)cc1C(=O)N(C)C21CC1 [Example 95, 5-Methyl-2-phenyl-9-(2-methyl-pyridin-3-yl)-spiro[benzo[f]pyrrolo[1,2-a][1,4]diazepine-6,1′-cyclopropan]-4(5H)-one] was tested, and the EC50 was less than 100 nM. Compound CN1C(=O)c2cc(-c3ccccc3)cn2-c2cc(-c3ccc(N)nc3)ccc2C12CC2 [Example 96, 5-Methyl-2-phenyl-9-(6-amino-pyridin-3-yl)-spiro[benzo[f]pyrrolo[1,2-a][1,4]diazepine-6,1′-cyclopropan]-4(5H)-one] has an EC50 of 100 to 1000 nM. Work on Cc1cc(-c2ccc3c(c2)-n2cc(-c4ccccc4)cc2C(=O)N(C)C32CC2)cc(C)n1 [Example 97, 5-Methyl-2-phenyl-9-(2,6-dimethyl-pyridin-4-yl)-spiro[benzo[f]pyrrolo[1,2-a][1,4]diazepine-6,1′-cyclopropan]-4(5H)-one] yielded an EC50 of 100 to 1000 nM. Work on Cc1cncc(-c2ccc3c(c2)-n2cc(-c4ccccc4)cc2C(=O)N(C)C32CC2)c1 [Example 98, 5-Methyl-2-phenyl-9-(5-methyl-pyridin-3-yl)-spiro[benzo[f]pyrrolo[1,2-a][1,4]diazepine-6,1′-cyclopropan]-4(5H)-one] yielded an EC50 of 100 to 1000 nM. In the case of CCc1ncccc1-c1ccc2c(c1)-n1cc(-c3ccccc3)cc1C(=O)N(C)C21CC1 [Example 99, 5-Methyl-2-phenyl-9-(2-ethyl-pyridin-3-yl)-spiro[benzo[f]pyrrolo[1,2-a][1,4]diazepine-6,1′-cyclopropan]-4(5H)-one], the EC50 is reported as 100 to 1000 nM. Cc1ccncc1-c1ccc2c(c1)-n1cc(-c3ccccc3)cc1C(=O)N(C)C21CC1 [Example 101, 5-Methyl-2-phenyl-9-(4-methyl-pyridin-3-yl)-spiro[benzo[f]pyrrolo[1,2-a][1,4]diazepine-6,1′-cyclopropan]-4(5H)-one] showed an EC50 of 100 to 1000 nM. In the case of CN1C(=O)c2cc(-c3ccccc3)cn2-c2cc(-c3ccncc3)ccc2C12CC2 [Example 102, 5-Methyl-2-phenyl-9-(pyridin-4-yl)-spiro[benzo[f]pyrrolo[1,2-a][1,4]diazepine-6,1′-cyclopropan]-4(5H)-one], the EC50 is reported as less than 100 nM. Cc1ccc(-c2ccc3c(c2)-n2cc(-c4ccccc4)cc2C(=O)N(C)C32CC2)cn1 [Example 103, 5-Methyl-2-phenyl-9-(6-methyl-pyridin-3-yl)-spiro[benzo[f]pyrrolo[1,2-a][1,4]diazepine-6,1′-cyclopropan]-4(5H)-one] was tested, and the EC50 was less than 100 nM. CN1C(=O)c2cc(-c3ccccc3)cn2-c2cc(-c3cncnc3)ccc2C12CC2 [Example 104, 5-Methyl-2-phenyl-9-(pyrimidin-5-yl)-spiro[benzo[f]pyrrolo[1,2-a][1,4]diazepine-6,1′-cyclopropan]-4(5H)-one] showed an EC50 of 100 to 1000 nM. Compound Cc1cc(-c2ccc3c(c2)-n2cc(-c4ccccc4)cc2C(=O)N(C)C32CC2)ccn1 [Example 105, 5-Methyl-2-phenyl-9-(2-methyl-pyridin-4-yl)-spiro[benzo[f]pyrrolo[1,2-a][1,4]diazepine-6,1′-cyclopropan]-4(5H)-one] has an EC50 of 100 to 1000 nM. Cc1ccc(-c2ccc3c(c2)-n2cc(-c4ccccc4)cc2C(=O)N(C)C32CC2)c(C)n1 [Example 107, 5-Methyl-2-phenyl-9-(2,6-dimethyl-pyridin-3-yl)-spiro[benzo[f]pyrrolo[1,2-a][1,4]diazepine-6,1′-cyclopropan]-4(5H)-one] showed an EC50 of less than 100 nM. CN1C(=O)c2cc(-c3ccccc3)cn2-c2cc(-c3cccnn3)ccc2C12CC2 [Example 109, 5-Methyl-2-phenyl-9-pyridazin-3-yl-spiro[benzo[f]pyrrolo[1,2-a][1,4]diazepine-6,1′-cyclopropan]-4(5H)-one] was tested, and the EC50 was 100 to 1000 nM. CN1C(=O)c2cc(-c3ccccc3)cn2-c2cc(-c3ccccn3)ccc2C12CC2 [Example 111, 5-Methyl-2-phenyl-9-(pyridin-2-yl)-spiro[benzo[f]pyrrolo[1,2-a][1,4]diazepine-6,1′-cyclopropan]-4(5H)-one] gave an EC50 of less than 100 nM. For CCc1ccc(-c2ccc3c(c2)-n2cc(-c4ccccc4)cc2C(=O)N(C)C32CC2)cn1 [Example 112, 5-methyl-2-phenyl-9-(6-ethylpyridin-3-yl)-spiro[benzo[f]pyrrolo[1,2-a][1,4]diazepine-6,1′-cyclopropan]-4(5H)-one], the EC50 was less than 100 nM. Work on CN(C)c1ccc(-c2ccc3c(c2)-n2cc(-c4ccccc4)cc2C(=O)N(C)C32CC2)cn1 [Example 114, 5-Methyl-2-phenyl-9-(6-dimethylamino-pyridin-3-yl)-spiro[benzo[f]pyrrolo[1,2-a][1,4]diazepine-6,1′-cyclopropan]-4(5H)-one] yielded an EC50 of less than 100 nM. For CN(C)c1ccc2c(c1)-n1cc(-c3ccccc3)cc1C(=O)N(C)C21CC1 [Example 115, 9-Dimethylamino-5-methyl-2-phenyl-spiro[benzo[f]pyrrolo[1,2-a][1,4]diazepine-6,1′-cyclopropan]-4(5H)-one], the EC50 was greater than 1000 nM. CNc1ccc(-c2ccc3c(c2)-n2cc(-c4ccccc4)cc2C(=O)N(C)C32CC2)cn1 [Example 118, 5-Methyl-2-phenyl-9-(6-methylamino-pyridin-3-yl)-spiro[benzo[f]pyrrolo[1,2-a][1,4]diazepine-6,1′-cyclopropan]-4(5H)-one] gave an EC50 of less than 100 nM.
